Measurements reported in patent US20140248212A1, “NON-IMMUNOGENIC POSITRON EMISSION TOMOGRAPHY REPORTER GENE SYSTEMS” (THE REGENTS OF THE UNIVERSITY OF CALIFORNIA, priority 2011, published 2014).
Residue numbers refer to the chain shown, from its start. Entries after “also recorded” stand apart in the source; their conditions may differ.

Key:
thymidine kinase 2 (TK2) = target: T1, thymidine kinase 2 (TK2) (Homo sapiens, UniProt O00142); settings: cited from earlier work
T1 sequence (O00142 34-265): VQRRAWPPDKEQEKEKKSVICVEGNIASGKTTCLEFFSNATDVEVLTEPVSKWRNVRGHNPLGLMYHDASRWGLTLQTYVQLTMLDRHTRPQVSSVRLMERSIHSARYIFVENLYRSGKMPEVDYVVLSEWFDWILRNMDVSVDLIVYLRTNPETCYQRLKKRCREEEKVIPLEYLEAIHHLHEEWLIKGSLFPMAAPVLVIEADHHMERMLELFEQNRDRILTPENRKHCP

[1] = target: deoxycytidine kinase (dCK) (Homo sapiens, UniProt P27707); settings: cited from earlier work
TK2-L109F = target: T2, TK2-L109F (Homo sapiens, UniProt O00142, L109F); assay: Kinetic analyses of recombinant TK2 (NADH-dependent enzyme coupled assay), TK2-L109F; settings: 37° C., 1 mM ATP
T2 sequence (O00142 51-265 L109F): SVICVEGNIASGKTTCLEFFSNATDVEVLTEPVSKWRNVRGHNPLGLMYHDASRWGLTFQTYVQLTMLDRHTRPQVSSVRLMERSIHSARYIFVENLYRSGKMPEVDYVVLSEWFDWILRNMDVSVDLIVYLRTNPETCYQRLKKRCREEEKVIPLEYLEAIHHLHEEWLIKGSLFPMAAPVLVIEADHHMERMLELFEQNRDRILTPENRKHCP
Experimental: (§1) A NADH-dependent enzyme coupled assay (see, e.g. Agarwal, K. C., et al. (1978) Methods Enzymol. 51, 483-490) was used. Using a Cary UV spectrophotometer, measurements were made in triplicate at 37° C. in a buffer containing 100 mM Tris, pH 7.5, 100 mM KCl, 5 mM MgCl2, and 1 mM ATP. For data in which kobs is given, a single nucleoside concentration of 200 μM was used. For data in which both Km and kcat are given, the nucleoside concentration was varied between 15 and 500 μM. TK2 concentration in the cuvette was 400 nM. Data were fit to the Michaelis-Menten equation using SigmaPlot. […] Therefore, all of the kinetic data using the Michaelis-Menten equation without the Hill coefficient is presented.

WT TK2 = target: T3, WT TK2 (Homo sapiens, UniProt O00142); assay: Kinetic analyses of recombinant TK2 (NADH-dependent enzyme coupled assay), WT TK2; type: biochemical; settings: 37° C., 1 mM ATP
T3 construct: hexahistidine (N, cleaved yes); SUMO (N, cleaved yes); made in house; host or cells: Escherichia coli BL21 (DE3) C41, modified pET14b
T3 sequence (O00142 51-265): T2 sequence (O00142 51-265 L109F) with F59L

TK2-N93D = target: T4, TK2-N93D (Homo sapiens, UniProt O00142, N93D); assay: Kinetic analyses of recombinant TK2 (NADH-dependent enzyme coupled assay), TK2-N93D; settings: 37° C., 1 mM ATP
T4 sequence (O00142 51-265 N93D): T2 sequence (O00142 51-265 L109F) with N43D, F59L
Experimental: as §1

TK2-N93D/L109F = target: T5, TK2-N93D/L109F (Homo sapiens, UniProt O00142, L109F/N93D); assay: Kinetic analyses of recombinant TK2 (NADH-dependent enzyme coupled assay), TK2-N93D/L109F; type: biochemical; settings: 37° C., 1 mM ATP
T5 construct: hexahistidine (N, cleaved yes); SUMO (N, cleaved yes); made in house; host or cells: Escherichia coli BL21 (DE3) C41, modified pET14b
T5 sequence (O00142 51-265 N93D/L109F): T2 sequence (O00142 51-265 L109F) with N43D
Experimental: FIG. 34 provides a table that illustrates the kinetics of the phosphorylation of D and L-nucleosides by the TK2 mutants. Kinase assays were performed with recombinant protein with 200 μM of the listed substrate.

Chain of deoxycytidine kinase (dCK) (P27707 whole entry): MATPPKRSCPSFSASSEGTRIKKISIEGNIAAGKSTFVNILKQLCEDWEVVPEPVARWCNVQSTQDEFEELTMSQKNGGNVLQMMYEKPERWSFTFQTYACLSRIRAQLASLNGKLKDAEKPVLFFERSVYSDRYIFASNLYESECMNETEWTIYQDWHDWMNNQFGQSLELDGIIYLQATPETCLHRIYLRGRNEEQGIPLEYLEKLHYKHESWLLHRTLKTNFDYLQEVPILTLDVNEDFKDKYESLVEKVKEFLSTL

kcat (L-FMAU)/kcat (D-dT) ratio (TK2-L109F): 2.4
kcat (L-FMAU)/kcat (D-dT) ratio (WT TK2): 3.7
decrease of kcat relative to WT TK2 (TK2-N93D): 32%
increase of kcat/Km compared with WT TK2 (TK2-N93D): 77%
kcat (L-FMAU)/kcat (D-dT) ratio compared with wild type (TK2-N93D): nearly triples
increase of kcat compared with TK2 (TK2-N93D/L109F): 100%
kcat (L-FMAU)/kcat (D-dT) ratio (TK2-N93D/L109F): 14.9
kcat (L-FMAU)/kcat (D-dT) ratio, higher than that for TK2 (TK2-N93D/L109F): 4 fold
kcat (L-FMAU)/kcat (D-dT) ratio, higher than that for TK2-N93D (TK2-N93D/L109F): ~40%
Structure (SMILES): Cc1cn([C@H]2O[C@@H](CO)[C@H](O)[C@H]2F)c(=O)[nH]c1=O [L-FMAU]
activity of kinase towards nucleoside analog (thymidine kinase 2 (TK2)): substrate for human TK2; also recorded: active towards L-FMAU, D-
activity of kinase towards nucleoside analog [1]: Very low activity with L-FMAU
